US4613608A (priority 1982, dated 1986)
Values after ≈ are worked out from the molar mass of the structure shown.

Key:
large coronary artery = experiment: tissue or blood; assay type: cell-based, dogs; conditions: for EC50: Canis lupus familiaris, read-out: ED50 Large (L); for S/L: dog, coronary artery strips
small coronary artery = experiment: tissue or blood; assay type: cell-based, dogs; conditions: Canis lupus familiaris, read-out: ED50 Small (S)

SMILES	EC50 (large coronary artery) [µg/mL]	S/L (large coronary artery)	EC50 (small coronary artery) [µg/mL]
O=[N+]([O-])OCc1cccnc1 [Compound A, 3-Nitroxymethylpyridine, reference compound]	0.08 (≈ 0.519 µM)	23.8	1.9 (≈ 12.3 µM)
O=[N+]([O-])OCCCc1ccncc1 [Compound C, 4-(3-Nitroxypropyl)pyridine]	0.0125 (≈ 0.0686 µM)	> 800	> 10
O=[N+]([O-])OCc1cccc(Cl)n1 [Compound D, 2-Nitroxymethyl-6-chloropyridine]	0.0067 (≈ 0.0355 µM)	925	6.2 (≈ 32.9 µM)
